The results in this text go back to paper PMC10891162 (Scientific Reports, 2024).

By IC50 is commonly meant the concentration at which inhibition is half-maximal. Read a low IC50 as inhibition by little substance.

The structures appear in SMILES notation.

One assay deals with β-Adrenergic receptor. The assay can be described thus: cAMP detection in A375 cells, endogenous β-Adrenergic receptor. In kind it is cell-based. Conditions: Fig. 5C, n = 3; for Change of cAMP levels, β-Adrenergic agonist: 5 min treatment; for Change of cAMP levels, β-Adrenergic antagonist: in the presence of 50 nM Isopreterenol. On the procedure: (§1) Media was removed from wells and 5µL of the diluted compounds were added to each well. […] Plates were mixed on an orbital shaker for 5 min at 400 rpm. […] 5µL of 2% trichloroacetic acid (TCA, Fisher Scientific SA9410-500) in water were added to wells to terminate reactions and lyse cells. […] Plates were mixed on an orbital shaker for 5 min at 400 rpm. […] Plates were mixed on an orbital shaker for 5 min at 400 rpm then incubated for 30 min at room temperature. […] Luminescence signal was measured on a GloMax Discover Microplate Reader within 15 min.
(§2) The assays were conducted by treatment of cells followed by lysis with 2% TCA, which also terminates the reactions. Cell lysates were then incubated with antibodies and tracer diluted in 0.3 M Tris buffer (pH 9.0; for neutralization) for 30 min after which time the detection reagent was added.
On the technique in general: Changes in cAMP serve as a functional read-out for many G protein-coupled receptors.

A further assay relates to HEK293 cells. Description: cAMP detection in HEK293 cells treated with Forskolin. The following applies: 30 min treatment, Fig. 5D, n = 3. Type of assay: cell-based. As to the method: as §1, §2
The test system of a further assay is Adenosine receptor. The assay can be described thus: cAMP detection in A375 cells, endogenous Adenosine receptor. In kind it is cell-based. The following applies: 1 h treatment, Fig. 5D, n = 3. As to the method:
as §1, §2

For another assay, the target named is Dopamine D1 (Homo sapiens, UniProt P21728). Description: cAMP detection in HEK293 cells stably transfected with DRD1. In kind it is cell-based. Conditions: n = 3. On the procedure:
as §1, §2

For a further assay, the target named is T1, PDE4A1A (Homo sapiens, UniProt P27815).
T1 construct: purchased BPS Biosciences 60040
T1 sequence (P27815 1-647 isoform P27815-4): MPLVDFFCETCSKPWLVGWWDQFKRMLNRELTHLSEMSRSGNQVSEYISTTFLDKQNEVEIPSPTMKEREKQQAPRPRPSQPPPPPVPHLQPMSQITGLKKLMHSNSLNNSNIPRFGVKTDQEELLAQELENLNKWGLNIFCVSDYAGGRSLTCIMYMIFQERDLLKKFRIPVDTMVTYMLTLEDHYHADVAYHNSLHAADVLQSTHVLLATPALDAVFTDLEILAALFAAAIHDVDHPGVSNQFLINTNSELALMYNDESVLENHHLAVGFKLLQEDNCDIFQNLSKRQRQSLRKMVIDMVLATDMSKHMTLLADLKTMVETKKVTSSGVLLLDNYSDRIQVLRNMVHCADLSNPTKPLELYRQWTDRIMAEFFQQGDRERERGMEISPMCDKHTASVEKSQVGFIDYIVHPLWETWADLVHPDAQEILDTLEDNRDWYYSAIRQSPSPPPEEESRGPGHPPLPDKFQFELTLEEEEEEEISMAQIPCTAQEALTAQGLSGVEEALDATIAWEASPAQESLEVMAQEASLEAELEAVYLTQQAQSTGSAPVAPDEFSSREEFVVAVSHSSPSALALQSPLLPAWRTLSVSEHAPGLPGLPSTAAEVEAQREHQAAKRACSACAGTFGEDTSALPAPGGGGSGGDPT
The assay can be described thus: PDE4 inhibition study (cAMP Lumit detection). In kind it is biochemical. The following applies: 20 ng PDE4A1A per reaction, 10 µM cAMP, n = 2, Fig. 4. As to the method:
Plates were mixed on an orbital shaker for 5 min at 400 rpm.

The subject of assay [1] is Anti-cAMP primary antibody (GenScript A01509). The assay can be described thus: cAMP Lumit immunoassay: cAMP standard curve, specificity and competition testing. In kind it is binding. The following applies: n = 2; for Luminescence signal drop on titration instead of cAMP (specificity): concentrations up to 10 µM, Fig. 2C,D; for Interference with cAMP standard curve: metabolite included at 10 µM in cAMP titration, Fig. 2E,F.

Chain of Dopamine D1 (P21728 whole entry): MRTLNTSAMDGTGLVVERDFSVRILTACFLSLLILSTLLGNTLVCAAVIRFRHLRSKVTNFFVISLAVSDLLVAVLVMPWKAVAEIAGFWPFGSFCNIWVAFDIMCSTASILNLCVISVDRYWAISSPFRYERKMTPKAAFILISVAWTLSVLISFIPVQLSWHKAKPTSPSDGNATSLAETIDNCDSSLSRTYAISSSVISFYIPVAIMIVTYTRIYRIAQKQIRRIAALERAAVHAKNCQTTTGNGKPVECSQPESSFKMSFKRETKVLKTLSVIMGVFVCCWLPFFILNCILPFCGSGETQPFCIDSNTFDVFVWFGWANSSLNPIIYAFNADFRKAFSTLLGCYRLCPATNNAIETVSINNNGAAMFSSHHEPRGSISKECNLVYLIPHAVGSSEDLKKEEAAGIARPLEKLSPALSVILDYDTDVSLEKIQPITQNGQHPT

For the molecule `CNC[C@H](O)c1ccc(O)c(O)c1` [Epinephrine], the “Change of cAMP levels, β-Adrenergic agonist” value with β-Adrenergic receptor is on record as “cAMP levels increase”.
In the case of `C=C[C@@]1(C)CC(=O)[C@]2(O)[C@@]3(C)[C@@H](O)CCC(C)(C)[C@@H]3[C@H](O)[C@H](OC(C)=O)[C@@]2(C)O1` [Forskolin], in the assay with HEK293 cells, the “Change of cAMP levels” value is given as “cAMP levels increase”.
Turning to `CCNC(=O)[C@H]1O[C@@H](n2cnc3c(N)ncnc32)[C@H](O)[C@@H]1O` [NECA], the “Change of cAMP levels, Adenosine receptor agonist” value in the assay on Adenosine receptor is listed as “cAMP levels increase”.
With `CN1CCc2cc(Cl)c(O)cc2[C@@H](c2ccccc2)C1` [SCH23390], at Dopamine D1 (HEK293 stably transfected with DRD1, in the presence of 100 nM SKF38393, Fig. 5A), the “Change of cAMP levels, DRD1 antagonist” value is listed as “cAMP levels reduction”.
`CCOc1ccccc1C(=O)NCc1coc(-c2ccc(OC(F)F)c(OC(C)C)c2)n1` [Difamilast]: the IC50 against PDE4A1A turned out to be 7.3 nM.
Regarding `Nc1nc2c(ncn2[C@@H]2O[C@@H]3COP(=O)(O)O[C@H]3[C@H]2O)c(=O)[nH]1` [cGMP, cyclic guanosine monophosphate], in assay [1], the “Luminescence signal drop on titration instead of cAMP (specificity)” value (“Luminescence signal drop” for short) is on record as “None of the tested metabolites resulted in a significant luminescence signal drop” and the “Interference with cAMP standard curve” value is “no effect”.
As to `Nc1nc2c(ncn2[C@@H]2O[C@@H]3COP(=O)(O)O[C@H]4[C@@H](O)[C@H](n5cnc6c(N)ncnc65)O[C@@H]4COP(=O)(O)O[C@H]3[C@H]2O)c(=O)[nH]1` [3′3′-cGAMP, 3′3′-cyclic guanosine monophosphate-adenosine monophosphate], in assay [1], the “Luminescence signal drop” value is listed as “None of the tested metabolites resulted in a significant luminescence signal drop” and the “Interference with cAMP standard curve” value is recorded as “no effect”.
In the case of `C=CCc1ccccc1OCC(O)CNC(C)C` (stereo not drawn) [Alprenolol], the “Change of cAMP levels, β-Adrenergic antagonist” value in the assay with β-Adrenergic receptor is given as “cAMP levels reduction”.
Turning to `Oc1cc2c(cc1O)C(c1ccccc1)CNCC2` (stereo not drawn) [SKF38393], the “Change of cAMP levels, DRD1 agonist” value on Dopamine D1 (HEK293 stably transfected with DRD1, 1 h treatment, Fig. 5A) is “cAMP levels increase”.
As to `CC(C)NCC(O)COc1cccc2ccccc12` (stereo not drawn) [Propranolol], in the assay with β-Adrenergic receptor, the “Change of cAMP levels, β-Adrenergic antagonist” value was “cAMP levels reduction”.
Consider `CC(C)NCC(O)c1ccc(O)c(O)c1` (stereo not drawn) [Isopreterenol, Isoproterenol], for which the “Change of cAMP levels, β-Adrenergic agonist” value in the assay on β-Adrenergic receptor is on record as “cAMP levels increase”.
As to `Nc1nc2c(ncn2[C@@H]2O[C@@H]3COP(=O)(O)O[C@H]4[C@@H](O)[C@H](n5cnc6c(N)ncnc65)O[C@@H]4COP(=O)(O)O[C@@H]2[C@@H]3O)c(=O)[nH]1` [2′3′-cGAMP, 2′3′-cyclic guanosine monophosphate-adenosine monophosphate], in assay [1], the “Luminescence signal drop” value is “None of the tested metabolites resulted in a significant luminescence signal drop” and the “Interference with cAMP standard curve” value is on record as “no effect”.
